Source: US10307357B2, “Prebiotic oral care compositions containing an alkyl glycoside” (COLGATE-PALMOLIVE COMPANY, priority 2013, dated 2019)

Legend:
Assay type in all cases: cell-based
[1] = system: beneficial oral bacteria and pathogenic oral bacteria; test: Microarray screen, conclusion over the panel; conditions: at 24 hrs and at 48 hrs; threshold 2
Method: Substrates that were able to increase the metabolic activity of at least one of the above beneficial bacteria while not or only minimally increasing the growth of the pathogenic bacteria are considered to be prebiotic substrates. The extent of metabolic activity of the tested bacteria in the presence of the above-mentioned glycosides after 24 hours and 48 hours was investigated through a high throughput phenotype microarray system (PM) for microbial cells (Biolog Inc.). Each PM can contain up to 95 different biochemical compounds (e.g. glycosides) that may act as substrates for bacteria as well as one negative control, not containing the substrates. Microarray plates were used in which the different wells of each plate were pre-loaded (by the manufacturer, Biolog Inc.) with different glycosides to be tested. […] Color changes were measured spectrophotometrically at 492 nm (Thermo Scientific Multiskan Ascent) at 24 hrs and 48 hrs using the same plate at both time points. […] After 24 hrs and 48 hrs under continuous shaking in a Multiscan microplate reader, the optical density (OD) of the synthetic medium at 24 hours and 48 hours was measured (using the microplate reader) at a wavelength of 492 nm for each combination of bacterium/glycoside, and for each of their respective controls (i.e. which contained the particular bacterium but no glycosides). […]

Capnocytophaga sputigena = test: Twenty-four hour optical density growth in BHI; conditions: over 24 hours, control = 1
Method: (§1) The extent of growth of the tested bacteria in response to selected glycosides (β-methyl-D-galactoside and α-methyl-D-galactoside) was investigated by setting up growth curves in a nutritionally rich medium (brain heart infusion broth (BHI), Oxoid), over 24 hours. Late exponential growth phase liquid cultures were prepared by transferring the respective bacterium from blood agar plates to BHI and overnight incubation at 37° C. in an anaerobic atmosphere for A. viscosus, V. parvula, F. nucleatum, P. gingivalis, P. intermedia, T. forsythia, A. naeslundii, and C. sputigena, and in a 5% CO2 environment for S. salivarius, S. sanguinis, S. mitis, A. actinomycetemcomitans, S. mutans, S. sobrinus and S. gordonii. Overnight cultures were transferred to BHI and adjusted to a concentration of 1×10^7 CFU/ml (colony forming units per ml) by measuring the optical density at 600 nm (OD600) (BioRad SmartSpec 3000). For each strain, 200 μl of the bacterial suspension was added to a 96-well plate containing 20 μl of the respective glycosides. Final concentrations of the glycosides were set to 5, 10, 20 and 25 μmol/ml. […] Plates were incubated as previously described. For each combination of bacterium/glycoside, and for each of their respective controls (i.e. the particular bacterium in the nutritionally rich medium with no glycoside), the optical density was measured at 630 nm (OD630) at 0 h and 24 h (Thermo Scientific Multiskan Ascent). Additionally, the OD630 for combinations of bacterium/glycosides grown in a 5% CO2 environment were also measured every hour between 0 h and 9 h. […] The experiment was carried out on three different days (thus providing 3 biological replicas) and on each day the experiment was carried out in quadruple (thus providing 4 technical replicas) for each combination of bacterium with glycoside and for each control. For each day and for each combination, the average (mean) of the values obtained (as detailed above) for the four technical replicas was calculated to provide a single value for each combination on each day. The values shown in Tables 5 to 6, below, are the average (mean) of the three single values obtained for each combination of bacterium with glycoside (α-Methyl-D-Galactoside=α-MDG; β-Methyl-D-Galactoside=β-MDG).

Streptococcus salivarius = test: Twenty-four hour optical density growth in BHI; conditions: over 24 hours, control = 1
Method: as §1

Fusobacterium nucleatum = test: Twenty-four hour optical density growth in BHI; conditions: over 24 hours, control = 1
Method: as §1

Streptococcus gordonii = test: Twenty-four hour optical density growth in BHI; conditions: over 24 hours, control = 1
Method: as §1

Actinomyces naeslundii = test: Twenty-four hour optical density growth in BHI; conditions: over 24 hours, control = 1
Method: as §1

Porphyromonas gingivalis = test: Twenty-four hour optical density growth in BHI; conditions: over 24 hours, control = 1
Method: as §1

Actinomyces viscosus = test: Twenty-four hour optical density growth in BHI; conditions: over 24 hours, control = 1
Method: as §1

## CO[C@H]1O[C@H](CO)[C@H](O)[C@H](O)[C@H]1O [α-methyl-D-galactoside]
[1]
  prebiotic effect (metabolic activity), in words: exhibited prebiotic effects
Capnocytophaga sputigena; 5 μmol/ml
  maximal OD630 divided by control (extent of growth): 0.8698
Capnocytophaga sputigena; 10 μmol/ml
  maximal OD630 divided by control (extent of growth): 0.8897
Capnocytophaga sputigena; 20 μmol/ml
  maximal OD630 divided by control (extent of growth): 0.8728
Capnocytophaga sputigena; 25 μmol/ml
  maximal OD630 divided by control (extent of growth): 0.8809
Streptococcus salivarius; 5 μmol/ml
  maximal OD630 divided by control (extent of growth): 0.8965
Streptococcus salivarius; 10 μmol/ml
  maximal OD630 divided by control (extent of growth): 0.8910
Streptococcus salivarius; 20 μmol/ml
  maximal OD630 divided by control (extent of growth): 0.8640
Streptococcus salivarius; 25 μmol/ml
  maximal OD630 divided by control (extent of growth): 0.8725
Fusobacterium nucleatum; 5 μmol/ml
  maximal OD630 divided by control (extent of growth): 0.8598
Fusobacterium nucleatum; 10 μmol/ml
  maximal OD630 divided by control (extent of growth): 0.8398
Fusobacterium nucleatum; 20 μmol/ml
  maximal OD630 divided by control (extent of growth): 0.7917
Fusobacterium nucleatum; 25 μmol/ml
  maximal OD630 divided by control (extent of growth): 0.7921
Streptococcus gordonii; 5 μmol/ml
  maximal OD630 divided by control (extent of growth): 0.9997
Streptococcus gordonii; 10 μmol/ml
  maximal OD630 divided by control (extent of growth): 0.9966
Streptococcus gordonii; 20 μmol/ml
  maximal OD630 divided by control (extent of growth): 1.0089
Streptococcus gordonii; 25 μmol/ml
  maximal OD630 divided by control (extent of growth): 1.0255
Actinomyces naeslundii; 5 μmol/ml
  maximal OD630 divided by control (extent of growth): 0.9762
Actinomyces naeslundii; 10 μmol/ml
  maximal OD630 divided by control (extent of growth): 0.9994
Actinomyces naeslundii; 20 μmol/ml
  maximal OD630 divided by control (extent of growth): 0.9595
Actinomyces naeslundii; 25 μmol/ml
  maximal OD630 divided by control (extent of growth): 0.9481
Porphyromonas gingivalis; 5 μmol/ml
  maximal OD630 divided by control (extent of growth): 0.9298
Porphyromonas gingivalis; 10 μmol/ml
  maximal OD630 divided by control (extent of growth): 0.9747
Porphyromonas gingivalis; 20 μmol/ml
  maximal OD630 divided by control (extent of growth): 0.9132
Porphyromonas gingivalis; 25 μmol/ml
  maximal OD630 divided by control (extent of growth): 0.9353
Actinomyces viscosus; 5 μmol/ml
  maximal OD630 divided by control (extent of growth): 0.6181
Actinomyces viscosus; 10 μmol/ml
  maximal OD630 divided by control (extent of growth): 0.5756
Actinomyces viscosus; 20 μmol/ml
  maximal OD630 divided by control (extent of growth): 0.4433
Actinomyces viscosus; 25 μmol/ml
  maximal OD630 divided by control (extent of growth): 0.4453

## CO[C@@H]1O[C@H](CO)[C@H](O)[C@H](O)[C@H]1O [β-methyl-D-galactoside]
[1]
  prebiotic effect (metabolic activity), in words: exhibited prebiotic effects
Capnocytophaga sputigena; 5 μmol/ml
  maximal OD630 divided by control (extent of growth): 0.8841
Capnocytophaga sputigena; 10 μmol/ml
  maximal OD630 divided by control (extent of growth): 0.8633
Capnocytophaga sputigena; 20 μmol/ml
  maximal OD630 divided by control (extent of growth): 0.8645
Capnocytophaga sputigena; 25 μmol/ml
  maximal OD630 divided by control (extent of growth): 0.8575
Streptococcus salivarius; 5 μmol/ml
  maximal OD630 divided by control (extent of growth): 1.2275
Streptococcus salivarius; 10 μmol/ml
  maximal OD630 divided by control (extent of growth): 1.5208
Streptococcus salivarius; 20 μmol/ml
  maximal OD630 divided by control (extent of growth): 1.7353
Streptococcus salivarius; 25 μmol/ml
  maximal OD630 divided by control (extent of growth): 1.7445
Fusobacterium nucleatum; 5 μmol/ml
  maximal OD630 divided by control (extent of growth): 0.8134
Fusobacterium nucleatum; 10 μmol/ml
  maximal OD630 divided by control (extent of growth): 0.8181
Fusobacterium nucleatum; 20 μmol/ml
  maximal OD630 divided by control (extent of growth): 0.8161
Fusobacterium nucleatum; 25 μmol/ml
  maximal OD630 divided by control (extent of growth): 0.8213
Streptococcus gordonii; 5 μmol/ml
  maximal OD630 divided by control (extent of growth): 0.9811
Streptococcus gordonii; 10 μmol/ml
  maximal OD630 divided by control (extent of growth): 0.9760
Streptococcus gordonii; 20 μmol/ml
  maximal OD630 divided by control (extent of growth): 0.9954
Streptococcus gordonii; 25 μmol/ml
  maximal OD630 divided by control (extent of growth): 1.0054
Actinomyces naeslundii; 5 μmol/ml
  maximal OD630 divided by control (extent of growth): 0.9746
Actinomyces naeslundii; 10 μmol/ml
  maximal OD630 divided by control (extent of growth): 0.9516
Actinomyces naeslundii; 20 μmol/ml
  maximal OD630 divided by control (extent of growth): 0.9705
Actinomyces naeslundii; 25 μmol/ml
  maximal OD630 divided by control (extent of growth): 0.9802
Porphyromonas gingivalis; 5 μmol/ml
  maximal OD630 divided by control (extent of growth): 0.8852
Porphyromonas gingivalis; 10 μmol/ml
  maximal OD630 divided by control (extent of growth): 0.9738
Porphyromonas gingivalis; 20 μmol/ml
  maximal OD630 divided by control (extent of growth): 0.9498
Porphyromonas gingivalis; 25 μmol/ml
  maximal OD630 divided by control (extent of growth): 0.9364
Actinomyces viscosus; 5 μmol/ml
  maximal OD630 divided by control (extent of growth): 0.6467
Actinomyces viscosus; 10 μmol/ml
  maximal OD630 divided by control (extent of growth): 0.6333
Actinomyces viscosus; 20 μmol/ml
  maximal OD630 divided by control (extent of growth): 0.6745
Actinomyces viscosus; 25 μmol/ml
  maximal OD630 divided by control (extent of growth): 0.6464
